Measured values as given in patent US20230142338A1, “THIOPHENYL DERIVATIVES USEFUL FOR MODULATING NUCLEIC ACID SPLICING” (REMIX THERAPEUTICS INC., priority 2020, published 2023).

How the values were obtained:
Assay type in all cases: cell-based
[1] = system: HTT AJ mRNA; experiment: Splicing assay (RT-qPCR): increase in HTT alternative junction (AJ) mRNA; settings: A673 or K562 cells, 24 hours treatment; concentration having 50% response in AJ mRNA increase
In short: (§1)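 A673 (DMEM/10% FBS) or K562 (IMDM/10% FBS) cells treated 24 h at 37 °C with 11-point 3-fold dilutions, top final 10 uM, DMSO ≤0.25%. Lysates taken directly to RT-qPCR for HTT CJ and AJ isoforms, normalized to GAPDH, GUSB or PPIA. ΔΔCt vs DMSO control converted to RQ (2^−ΔΔCt), then percentage response.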

[2] = system: HTT CJ mRNA; experiment: Gene panel canonical junction qPCR assay: HTT; settings: Table 3, concentration having 50% response in CJ decrease, read-out: HTT IC50 (decrease in CJ mRNA levels)
In short: (§2)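 A673 or K562 cells were treated 24 h at 37 °C with an 11-point 3-fold dilution series (top 10 uM; ≤0.25% DMSO). Canonical-junction mRNA was then measured in lysates by one-step RT-qPCR. Values were normalized to a housekeeping gene (GAPDH, GUSB or PPIA) and to the DMSO control via 2^(−ΔΔCt).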

[3] = system: HTT CJ mRNA; experiment: Splicing assay (RT-qPCR): decrease in HTT canonical junction (CJ) mRNA; settings: A673 or K562 cells, 24 hours treatment; concentration having 50% response in CJ mRNA decrease
In short: as §1

[4] = system: SMN2 CJ mRNA; experiment: Gene panel canonical junction qPCR assay: SMN2; settings: Table 3, concentration having 50% response in CJ decrease, read-out: SMN2 IC50 (decrease in CJ mRNA levels)
In short: as §2

[5] = system: Target C CJ mRNA; experiment: Gene panel canonical junction qPCR assay: Target C; settings: Table 3, concentration having 50% response in CJ decrease, read-out: Target C IC50 (decrease in CJ mRNA levels)
In short: as §2

SMILES	AC50 [1]	IC50 [2]	AC50 [3]	IC50 [4]	IC50 [5]
Cc1cn2cc(NC(=O)c3sc(N4CCN(C)C(C)C4)cc3F)cc(F)c2n1 (centres unmarked) [Compound 129, 5-(3,4-dimethylpiperazin-1-yl)-3-fluoro-N-[8-fluoro-2-methylimidazo[1,2-a]pyridin-6-yl]thiophene-2-carboxamide]	> 10000 nM	> 10 nM	> 10000 nM	1000 to 10000 nM	> 10 nM
Cc1cn2cc(NC(=O)c3sc(N4C[C@H]5CC[C@@H](C4)N5)cc3F)cc(F)c2n1 [Compound 143, 5-[(1R,5S)-3,8-diazabicyclo[3.2.1]octan-3-yl]-3-fluoro-N-[8-fluoro-2-methylimidazo[1,2-a]pyridin-6-yl]thiophene-2-carboxamide]	> 10000 nM	> 10 nM	> 10000 nM	1000 to 10000 nM	1000 to 10000 nM
Cc1cn2cc(NC(=O)c3ccc(C4CCNCC4)s3)cc(F)c2n1 [Compound 174, N-[8-fluoro-2-methylimidazo[1,2-a]pyridin-6-yl]-5-(piperidin-4-yl) thiophene-2-carboxamide]	1000 to 10000 nM	100 to 1000 nM	1000 to 10000 nM	100 to 1000 nM	1000 to 10000 nM
Cc1cn2cc(NC(=O)c3sc(N4CCNC(C)C4)cc3F)ncc2n1 (centres unmarked) [Compound 167, 3-fluoro-N-[2-methylimidazo[1,2-a]pyrazin-6-yl]-5-(3-methylpiperazin-1-yl)thiophene-2-carboxamide]	> 10000 nM	> 10 nM	> 10000 nM	100 to 1000 nM	> 10 nM
Cc1cn2cc(NC(=O)c3sc(N4CCNC5(CC5)C4)cc3F)cc(F)c2n1 [Compound 132, 5-[4,7-diazaspiro[2.5]octan-7-yl]-3-fluoro-N-[8-fluoro-2-methylimidazo[1,2-a]pyridin-6-yl]thiophene-2-carboxamide]	> 10000 nM	> 10 nM	> 10000 nM	1000 to 10000 nM	> 10 nM
Cc1nc2c(F)cc(NC(=O)c3sc(C4CCNCC4)cc3F)cc2o1 [Compound 184, 3-fluoro-N-(4-fluoro-2-methyl-1,3-benzoxazol-6-yl)-5-(piperidin-4-yl)thiophene-2-carboxamide]	100 to 1000 nM	100 to 1000 nM	100 to 1000 nM	< 100 nM	100 to 1000 nM
Cc1cn2cc(NC(=O)c3sc(N4CCNC(C)C4)cc3F)c(C)cc2n1 (centres unmarked) [Compound 166, N-[2,7-dimethylimidazo[1,2-a]pyridin-6-yl]-3-fluoro-5-(3-methylpiperazin-1-yl)thiophene-2-carboxamide]	> 10000 nM	> 10 nM	> 10000 nM	1000 to 10000 nM	> 10 nM
Cc1cn2cc(NC(=O)c3sc(N4CCC(N5CCCC5)C4)cc3F)cc(F)c2n1 (centres unmarked) [Compound 136, 5-[[1,3′-bipyrrolidin]-1′-yl]-3-fluoro-N-[8-fluoro-2-methylimidazo[1,2-a]pyridin-6-yl]thiophene-2-carboxamide]	> 10000 nM	> 10 nM	> 10000 nM	100 to 1000 nM	> 10 nM
Cc1nc2c(F)cc(NC(=O)c3sc(C4CCNCC4)cc3F)cc2s1 [Compound 185, 3-fluoro-N-(4-fluoro-2-methyl-1,3-benzothiazol-6-yl)-5-(piperidin-4-yl)-thiophene-2-carboxamide]	1000 to 10000 nM	100 to 1000 nM	100 to 1000 nM	< 100 nM	1000 to 10000 nM
CCNC1CCN(c2cc(F)c(C(=O)Nc3cc(F)c4nc(C)cn4c3)s2)CC1 [Compound 142, 5-[4-(ethylamino)piperidin-1-yl]-3-fluoro-N-[8-fluoro-2-methylimidazo [1,2-a]pyridin-6-yl]thiophene-2-carboxamide]	1000 to 10000 nM	1000 to 10000 nM	1000 to 10000 nM	1000 to 10000 nM	1000 to 10000 nM
